*1 amine or outer side, *2 acyl side, *3 side chain or, on linkers, in order; H or OH if unused. Where a SMILES comes first, the peptide text is derived from it. Bridges are numbered along the chain shown (N, C = ends). Roman numbers before positions name the chains, in order. [ ]: non-standard residue; d: D form. TATA = O=C(CC[*:1])N1CN(C(=O)CC[*:2])CN(C(=O)CC[*:3])C1; X2 = O=C(CCOCCOCCOCCOCCOCCn1cc(CCC(=O)[*:2])nn1)[*:1]; hArg = N=C(N)NCCCC[C@H](N)C(=O)O; tBuAla = CC(C)(C)C[C@H](N)C(=O)O; Nle = CCCC[C@H](N)C(=O)O
Molecular target: T1, CD137 (Homo sapiens, UniProt Q07011)
T1 construct: host or cells: Jurkat reporter cells from the Promega kit, co-cultured with tumour cells (NCI-H292, PC3 or RKO)
Test: CD137 reporter assay co-culture with RKO tumour cells (PD-L1/CD137 heterotandems)
Format: cell-based
Details: Jurkat CD137 reporter cells co-cultured with RKO (PD-L1), 6 h; read-out: Fold Induction over background
Protocol: Culture medium, referred to as R1 media, is prepared by adding 1% FBS to RPMI-1640 (component of Promega kit CS196005). Serial dilutions of test articles in R1 are prepared in a sterile 96 well-plate. Add 25 μL per well of test articles or R1 (as a background control) to designated wells in a white cell culture plate. Tumour cells* are harvested and resuspended at a concentration of 400,000 cells/mL in R1 media. Twenty five (25) μL/well of tumour cells are added to the white cell culture plate. Jurkat cells (Promega kit CS196005, 0.5 mL) are thawed in the water bath and then added to 5 ml pre-warmed R1 media. Twenty five (25) μL/well of Jurkat cells are then added to the white cell culture plate. Incubate the cells and test articles for 6 h at 37° C., 5% CO2. At the end of 6 h, add 75 μL/well Bio-Glo™ reagent (Promega) and incubate for 10 min before reading luminescence in a plate reader (Clariostar, BMG). The fold change relative to cells alone (Jurkat cells+Cell line used in co-culture) is calculated and plotted in GraphPad Prism as log(agonist) vs response to determine EC50 (nM) and Fold Induction over background (Max).
The tumour cell type used in co-culture for EphA2 is PC3. The tumour cell type used in co-culture for PD-L1 is RKO.
A summary of the fold induction induced by PD-L1/CD137 heterotandem peptides in the CD137 reporter coculture assay with RKO cells is shown in Table 3.

T1 sequence (Q07011 24-255): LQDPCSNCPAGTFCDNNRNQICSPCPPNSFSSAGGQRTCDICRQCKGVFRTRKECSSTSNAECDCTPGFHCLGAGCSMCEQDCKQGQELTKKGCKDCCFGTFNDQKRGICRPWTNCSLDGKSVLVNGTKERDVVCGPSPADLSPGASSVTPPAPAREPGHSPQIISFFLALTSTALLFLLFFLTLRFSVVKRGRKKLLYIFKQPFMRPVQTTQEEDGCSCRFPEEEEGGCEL

CCCC[C@@H]1NC(=O)[C@H](Cc2ccc(O)cc2)NC(=O)[C@@H]2CCCN2C(=O)[C@H](CC(=O)O)NC(=O)[C@H](C)NC(=O)[C@H](Cc2ccccc2)NC(=O)[C@@H]2CSCCC(=O)N3CN(CN(C3)C(=O)CCSC[C@@H](C(=O)N[C@@H](C)C(N)=O)NC1=O)C(=O)CCSC[C@H](NC(C)=O)C(=O)N[C@@H](CC(C)(C)C)C(=O)N1CCC[C@H]1C(=O)N[C@@H](CCC(=O)O)C(=O)N[C@H](CCCCNC(=O)CCc1cn(CCOCCOCCOCCOCCOCCC(=O)NCCCC[C@@H]3NC(=O)[C@H](CCC(N)=O)NC(=O)[C@@H]4CSCCC(=O)N5CN(CN(C5)C(=O)CCSC[C@@H](C(=O)N5CCC[C@H]5C(=O)N[C@@H](CO)C(=O)N[C@@H](Cc5c[nH]cn5)C(N)=O)NC(=O)[C@H](CC(C)C)NC(=O)[C@H](Cc5c[nH]cn5)NC(=O)[C@H](CC(C)C)NC3=O)C(=O)CCSC[C@H](NC(=O)[C@H](CCCCNC(=N)N)NC(=O)[C@H](CC(=O)O)NC(C)=O)C(=O)N[C@@H](CO)C(=O)N[C@@H](C)C(=O)NCC(=O)N[C@@H](Cc3c[nH]c5ccccc35)C(=O)N[C@@H](CC(C)C)C(=O)N[C@@H]([C@@H](C)O)C(=O)N[C@@H](CCSC)C(=O)N4)nn1)C(=O)N1CCC[C@H]1C(=O)N[C@@H](Cc1ccc(O)cc1)C(=O)N2 [BCY12229] (I: Ac-D[hArg]CSAGWLTMCQKLHLCPSH-NH2 / II: Ac-C[tBuAla]PE[dK]PYCFADPY[Nle]CA-NH2; linker I:3-I:11-I:17, II:1-II:8-II:15 via TATA; linker I:13-II:5 via X2)
fold induction: 8
